Results taken from BindingDB's records for patent US20250313563 (The Broad Institute, 2025).
Where “and” joins values, the source holds several entries; their conditions need not be identical. Equal values may be shown once.

What was measured:
[1] = target: Glycogen synthase kinase-3 alpha (Homo sapiens, UniProt P49840); assay: TR-FRET Assay
Summary of the method: (§1)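 Signal is measured as TR-FRET between a terbium anti-phospho-Ser641 antibody and streptavidin-d2, added after an EDTA quench. Compounds are preincubated 30 min in assay buffer.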

[2] = target: Glycogen synthase kinase-3 beta (Homo sapiens, UniProt P49841); assay: TR-FRET Assay
Summary of the method: as §1

Glycogen synthase kinase-3 alpha, sequence (P49840 whole entry): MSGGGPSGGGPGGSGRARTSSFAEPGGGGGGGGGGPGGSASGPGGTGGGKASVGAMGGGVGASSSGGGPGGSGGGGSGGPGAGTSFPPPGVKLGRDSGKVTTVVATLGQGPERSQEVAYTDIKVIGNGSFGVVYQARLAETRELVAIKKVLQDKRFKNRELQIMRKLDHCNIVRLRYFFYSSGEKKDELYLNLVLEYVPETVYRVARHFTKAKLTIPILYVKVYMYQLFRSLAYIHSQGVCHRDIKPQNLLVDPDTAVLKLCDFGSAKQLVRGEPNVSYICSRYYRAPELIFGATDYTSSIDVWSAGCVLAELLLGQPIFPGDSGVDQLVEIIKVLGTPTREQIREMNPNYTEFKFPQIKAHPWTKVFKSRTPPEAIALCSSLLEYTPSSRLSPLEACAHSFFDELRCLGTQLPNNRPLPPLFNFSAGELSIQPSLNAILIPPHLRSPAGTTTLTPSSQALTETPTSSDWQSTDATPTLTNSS
Glycogen synthase kinase-3 beta, sequence (P49841 whole entry): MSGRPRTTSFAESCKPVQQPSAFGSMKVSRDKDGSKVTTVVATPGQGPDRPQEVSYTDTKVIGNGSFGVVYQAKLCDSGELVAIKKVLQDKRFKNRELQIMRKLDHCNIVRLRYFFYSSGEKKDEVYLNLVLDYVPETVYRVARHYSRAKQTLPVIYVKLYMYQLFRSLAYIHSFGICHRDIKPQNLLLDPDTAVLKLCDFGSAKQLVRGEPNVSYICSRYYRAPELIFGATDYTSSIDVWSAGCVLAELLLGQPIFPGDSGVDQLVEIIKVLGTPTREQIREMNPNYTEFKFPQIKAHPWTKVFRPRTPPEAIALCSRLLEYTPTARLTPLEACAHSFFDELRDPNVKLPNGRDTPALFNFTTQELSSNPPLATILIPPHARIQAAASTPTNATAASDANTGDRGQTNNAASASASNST

SMILES | IC50 [1] | IC50 [2]
CC1(C)CC(=O)C2=C(NC3N=NC=C3C23CCOCC3)[C@H]1F (stereo partly specified) [US20250313563, Compound 883833] | 100 to 1000 nM | 1000 to 5000 nM
CC1(C)CC(=O)C2=C(C1)NC1=C(CN=N1)C2(C)c1cc(F)cc(F)c1 (stereo unspecified) [US20250313563, Compound 785735] | 100 to 1000 nM | > 5000 nM
CCC1(c2cccc(N(C)c3ccnn3C)c2)C2=CN=NC2NC2=C1C(=O)CC(C)(C)C2 (stereo unspecified) [US20250313563, Compound 889604] | 100 to 1000 nM | 1000 to 5000 nM
CC1(C)CC(=O)C2=C(C1)NC1=C(CN=N1)[C@]21CCN(S(=O)(=O)C2CCCC2)C1 [US20250313563, Compound 943482] | < 100 nM and 100 to 1000 nM | < 100 nM and 100 to 1000 nM
CC[C@@]1(c2cccc(-c3cc(C)nc4c3cnn4C)c2)C2=CN=NC2NC2=C1C(=O)NC(C)(C)C2 (stereo partly specified) [US20250313563, Compound 952563] | 1000 to 5000 nM | > 5000 nM
CC1(C)CC(=O)C2=C(C1)NC1N=NC(Br)=C1[C@@]21CCc2c(F)cccc21 (stereo partly specified) [US20250313563, Compound 806938] | 100 to 1000 nM | 1000 to 5000 nM
CCC1(c2ccccc2)C2=C(N=NC2)NC2=C1C(=O)CSC2 (stereo unspecified) [US20250313563, Compound 801406] | 1000 to 5000 nM | > 5000 nM
CC1(C)CC(=O)C2=C(C1)NC1=C(CN=N1)[C@]21COC2(CN(S(C)(=O)=O)C2)C1 [US20250313563, Compound 926823] | 100 to 1000 nM | 1000 to 5000 nM
CC1(C)CC(=O)C2=C(C1)NC1=C(CN=N1)C21CN(C2CCOCC2)C1 [US20250313563, Compound 932651] | > 5000 nM | > 5000 nM
CC[C@@]1(c2cccc(N(C)c3cnccn3)c2)C2=CN=NC2NC2=C1C(=O)CC(C)(C)C2 (stereo partly specified) [US20250313563, Compound 915340] | 100 to 1000 nM | 1000 to 5000 nM
CC[C@]1(c2cccc(-c3ccncc3C)c2)C2=CN=NC2NC2=C1C(=O)N[C@@]1(CCCOC1)C2 (stereo partly specified) [US20250313563, Compound 947912] | 100 to 1000 nM | 1000 to 5000 nM
CC[C@]1(c2cccc(-c3ccnc(N(C)C)c3)c2)C2=C(CC(C)(C)CC2=O)NC2N=NC(C)=C21 (stereo partly specified) [US20250313563, Compound 913048] | 100 to 1000 nM | 1000 to 5000 nM
CC[C@@]1(c2cccc(-c3ccncc3)c2)C2=CN=NC2NC2=C1C(=O)C[C@H](C)C2 (stereo partly specified) [US20250313563, Compound 874316] | 100 to 1000 nM | 1000 to 5000 nM
CC[C@]1(c2cccc(-c3cnn(C)c3C)c2)C2=CN=NC2NC2=C1C(=O)NC(C)(C)C2 (stereo partly specified) [US20250313563, Compound 945617] | 1000 to 5000 nM | > 5000 nM
CC[C@@]1(c2cccc(-c3cn(C)nc3C)c2)C2=CN=NC2NC2=C1C(=O)NC(C)(C)C2 (stereo partly specified) [US20250313563, Compound 945470] | < 100 nM and 100 to 1000 nM | < 100 nM and 1000 to 5000 nM
CC1(C)CC(=O)C2=C(C1)NC1=C(CN=N1)C21CCC(C(=O)N2CCCC2)CC1 (stereo unspecified) [US20250313563, Compound 945394] | 100 to 1000 nM | 1000 to 5000 nM
CC[C@]1(c2cccc(N(C)c3ncccn3)c2)C2=CN=NC2NC2=C1C(=O)NC(C)(C)C2 (stereo partly specified) [US20250313563, Compound 947825] | 100 to 1000 nM | > 5000 nM
CC[C@@]1(c2cccc(-c3ccncc3)c2)C2=CN=NC2NC2=C1C(=O)CC(C)(C)C2 (stereo partly specified) [US20250313563, Compound 801413] | 100 to 1000 nM | 1000 to 5000 nM
CC[C@@]1(c2cccc(C(F)(F)F)c2)C2=CN=NC2NC2=C1C(=O)N(c1ccccc1)CC2 (stereo partly specified) [US20250313563, Compound 929475] | > 5000 nM | > 5000 nM
CC1(C)CC(=O)C2=C(C1)NC1=C(CN=N1)C21CCC(C(F)(F)F)CC1 (stereo unspecified) [US20250313563, Compound 865193] | < 100 nM and 100 to 1000 nM | < 100 nM and 1000 to 5000 nM
CC1(C)CC(=O)C2=C(C1)NC1=C(CN=N1)C2(C)c1cccc(-c2ccccc2)c1 (stereo unspecified) [US20250313563, Compound 789513] | 100 to 1000 nM | 100 to 1000 nM
CC[C@]1(c2cccc(-c3ccnc(C)c3)c2)C2=C(CC(C)(C)NC2=O)NC2N=NC(F)=C21 (stereo partly specified) [US20250313563, Compound 949001] | 100 to 1000 nM | 100 to 1000 nM
CC[C@@]1(c2cccc(S(=O)(=O)C(C)C)c2)C2=C(CC(C)(C)NC2=O)NC2N=NC(C(F)(F)F)=C21 (stereo partly specified) [US20250313563, Compound 948423] | < 100 nM | 100 to 1000 nM
CCn1cc(N2CCC3=C(C2=O)[C@](CC)(c2cccc(C(F)(F)F)c2)C2=CN=NC2N3)cn1 (stereo partly specified) [US20250313563, Compound 949867] | < 100 nM | 100 to 1000 nM
CCC1(c2cccc(N3CCCC3)c2)C2=C(CC(C)(C)NC2=O)NC2N=NC(C)=C21 (stereo unspecified) [US20250313563, Compound 947673] | < 100 nM | 100 to 1000 nM
O=C1C[C@H](C(F)(F)F)CC2=C1C1(CCOCC1)C1=C(N=NC1)N2 [US20250313563, Compound 901477] | 100 to 1000 nM | 1000 to 5000 nM
CC[C@@]1(c2cccc(-c3ccncc3F)c2)C2=C(CC(C)(C)NC2=O)NC2N=NC(C(F)F)=C21 (stereo partly specified) [US20250313563, Compound 951599] | 100 to 1000 nM | 100 to 1000 nM
CCC1(c2cccc(C(F)(F)F)c2)C2=CN=NC2NC2=C1C(=O)N(c1ccccc1)C2 (stereo unspecified) [US20250313563, Compound 918313] | 100 to 1000 nM | 1000 to 5000 nM

Further lines, results first:

IC50 [1] | IC50 [2] | SMILES
< 100 nM | 100 to 1000 nM | CCC1(c2cccc(C(F)(F)F)c2)C2=CN=NC2NC2=C1C(=O)N(c1cccnc1)CC2 (stereo unspecified) [US20250313563, Compound 945637]
< 100 nM and 100 to 1000 nM | 100 to 1000 nM | CC[C@]1(c2cccc(C(F)(F)F)c2)C2=C(N=NC2)NC2=C1C(=O)N(Cc1ccccc1)C2 [US20250313563, Compound 929388]
< 100 nM | 100 to 1000 nM | CC(=O)N1CC[C@]2(C1)C[C@@]1(CO2)C2=C(N=NC2)NC2=C1C(=O)CC(C)(C)C2 [US20250313563, Compound 948319]
100 to 1000 nM | 100 to 1000 nM | CC[C@]1(c2cccc(N3CCOCC3)c2)C2=C(CC(C)(C)NC2=O)NC2N=NC(C(F)(F)F)=C21 (stereo partly specified) [US20250313563, Compound 949000]
< 100 nM | < 100 nM | CCC1(c2cccc(S(=O)(=O)C3CC3)c2)C2=CN=NC2NC2=C1C(=O)N(C)C(C)(C)C2 (stereo unspecified) [US20250313563, Compound 948303]
< 100 nM | < 100 nM | CCC1(c2cccc(NS(C)(=O)=O)c2)C2=CN=NC2NC2=C1C(=O)CC(C)(C)C2 (stereo unspecified) [US20250313563, Compound 913253]
< 100 nM | < 100 nM | CCC1(c2cccc(-c3cn(C)nc3C)c2)C2=C(CC(C)(C)NC2=O)NC2N=NC(Cl)=C21 (stereo unspecified) [US20250313563, Compound 948768]
< 100 nM | < 100 nM | CCC1(c2cccc(-c3cn(C)nc3C)c2)C2=C(CC(C)(C)NC2=O)NC2N=NC(C)=C21 (stereo unspecified) [US20250313563, Compound 945460]
< 100 nM | 100 to 1000 nM | CC[C@]1(c2cccc(C(F)(F)F)c2)C2=CN=NC2NC2=C1C(=O)N(c1cc(C)n(C)n1)CC2 (stereo partly specified) [US20250313563, Compound 951939]
< 100 nM | 100 to 1000 nM | C[C@H]1C[C@@]2(CCN1S(=O)(=O)c1ccn(C)n1)C1=C(N=NC1)NC1=C2C(=O)CC(C)(C)C1 [US20250313563, Compound 926832]
< 100 nM | < 100 nM | CC1(C)CC2=C(C(=O)[C@H]1F)[C@]1(CC[C@H](C(F)(F)F)CC1)C1=C(N=NC1)N2 [US20250313563, Compound 918282]
< 100 nM | < 100 nM | CCC1(c2cccc(C(F)(F)F)c2)C2=CN=NC2NC2=C1C(=O)CC(C)(C)C2 (stereo unspecified) [US20250313563, Compound 785762]
< 100 nM | 100 to 1000 nM | CC1(C)CC(=O)C2=C(C1)NC1=C(CN=N1)[C@@]21COC2(CN(C(=O)C(C)(F)F)C2)C1 [US20250313563, Compound 947839]
< 100 nM | 100 to 1000 nM | CCC1(c2cccc(-c3ccnc(C)c3F)c2)C2=CN=NC2NC2=C1C(=O)CC(C)(C)C2 (stereo unspecified) [US20250313563, Compound 918281]
< 100 nM | < 100 nM | CC[C@@]1(c2cccc(-c3ccnc4ccccc34)c2)C2=CN=NC2NC2=C1C(=O)CC(C)(C)C2 (stereo partly specified) [US20250313563, Compound 944031]
< 100 nM | 100 to 1000 nM | CC[C@]1(c2cccc(-c3cnn(C)c3C)c2)C2=C(CC(C)(C)NC2=O)NC2N=NC(C(F)(F)F)=C21 (stereo partly specified) [US20250313563, Compound 947807]
< 100 nM | 100 to 1000 nM | CCC1(c2cccc(-c3ncnc(C)c3C)c2)C2=CN=NC2NC2=C1C(=O)CC(C)(C)C2 (stereo unspecified) [US20250313563, Compound 948090]
100 to 1000 nM | < 100 nM | CC1(C)CC(=O)C2=C(C1)NC1N=NC(CCC(F)(F)F)=C1[C@]2(C)c1ccccc1 (stereo partly specified) [US20250313563, Compound 856949]
< 100 nM | 100 to 1000 nM | CCC1(c2cccc(C3=CN=NC3)c2)C2=CN=NC2NC2=C1C(=O)NC(C)(C)C2 (stereo unspecified) [US20250313563, Compound 944022]
100 to 1000 nM | 100 to 1000 nM | COc1ccc(S(=O)(=O)N2CCC3(CC2)C2=C(N=NC2)NC2=C3C(=O)CC(C)(C)C2)cc1 [US20250313563, Compound 901469]
< 100 nM | 100 to 1000 nM | CC[C@@]1(c2cccc(-c3ccncc3F)c2)C2=C(CC(C)(C)CC2=O)NC2N=NC(C(F)(F)F)=C21 (stereo partly specified) [US20250313563, Compound 947327]
< 100 nM | 100 to 1000 nM | CCC1(c2cccc(C)c2)C2=C(N=NC2)NC2=C1C(=O)CC1(CCCC1)C2 (stereo unspecified) [US20250313563, Compound 789565]
100 to 1000 nM | 100 to 1000 nM | CC[C@]1(c2ccccc2)C2=CN=NC2NC2=C1C(=O)C[C@@](C)(C(F)(F)F)C2 (stereo partly specified) [US20250313563, Compound 819568]
< 100 nM | < 100 nM | CC[C@]1(c2cccc(-c3ccncc3F)c2)C2=C(CC(C)(C)CC2=O)NC2N=NC(C(F)(F)F)=C21 (stereo partly specified) [US20250313563, Compound 947326]
< 100 nM | < 100 nM | CCC1(c2cccc(-c3ccnc(C)c3)c2)C2=C(CC(C)(C)NC2=O)NC2N=NC(C(F)(F)F)=C21 (stereo unspecified) [US20250313563, Compound 947858]
